Test results published in patent US9051322B2, “Process for the production of a pemetrexed salt” (SCINOPHARM TAIWAN, LTD., priority 2011, dated 2015).
Counter-ions that a name gives are not always drawn.

Test: Stability of pemetrexed disodium in sodium hydroxide at different temperature (impurity content by HPLC)
Type: physicochemical
Description: In comparison with the prior art, the embodiments of the present invention have the following advantages: • 1) The reaction of the compound of formula (II) or salt thereof with an aqueous basic solution is preferably conducted at a low temperature, e.g., no more than 10° C., in comparison with the room temperature of WO2001014379 and WO1999016742. As shown in Table 1 shown below, the inventors of the present invention unexpectedly discovered that impurities can be reduced or minimized by conducting the reaction at a low temperature. As noted above, after the reaction step, the low temperature is preferably maintained during the steps of adjusting pH and adding anti-solvent. • 2) The anti-solvent is preferably added before adjusting the pH value. The inventors unexpectedly discovered that by doing so, the mixture can be diluted by the addition of the anti-solvent before the adjusting step, therefore minimizing local heat effect and formation of impurities. In comparison, WO2001014379 discloses adjusting the pH value before the addition of an anti-solvent. • 3) In accordance with the present invention, the compound of formula (II) can be converted to a pemetrexed salt (e.g., at a pH of 6.5 to 9.5). In contrast, the process of WO1999016472 comprises making pemetrexed free form first (at a pH of about 3), and then converting the free form to a salt (at a pH of about 6.5 to 9.5). The process of the present invention is simpler and more convenient. • 4) In accordance with an embodiment of the present invention, the crude pemetrexed salt may be crystallized at a room temperature; whereas in accordance with WO2001014379, the crystallizing is conducted at about 70° C. The cooling, heating, and adjusting pH steps of WO2001014379 may be avoided in accordance with the embodiment of the present invention. The process of the present invention can save workup procedures and has better control of impurity.

Nc1nc2[nH]cc(CCc3ccc(C(=O)N[C@@H](CCC(=O)O)C(=O)O)cc3)c2c(=O)[nH]1 [pemetrexed disodium, L-Glutamic acid, N-[4-[2-(2-amino-4,7-dihydro-4-oxo-1H-pyrrolo[2,3-d]pyrimidin-5-yl)ethyl]benzoyl]-, disodium salt]
content of impurity based on HPLC spectra's % Area (5 °C, 1 hr): 0.012% | content of impurity based on HPLC spectra's % Area (5 °C, 2 hr): 0.013% | content of impurity based on HPLC spectra's % Area (5 °C, 4 h): 0.035% | content of impurity based on HPLC spectra's % Area (5 °C, 6 hr): 0.066% | content of impurity based on HPLC spectra's % Area (10 °C, 1 hr): 0.051% | content of impurity based on HPLC spectra's % Area (10 °C, 2 hr): 0.053% | content of impurity based on HPLC spectra's % Area (10 °C, 4 h): 0.070% | content of impurity based on HPLC spectra's % Area (10 °C, 6 hr): 0.075% | content of impurity based on HPLC spectra's % Area (15 °C, 1 hr): 0.076% | content of impurity based on HPLC spectra's % Area (15 °C, 2 hr): 0.085% | content of impurity based on HPLC spectra's % Area (15 °C, 4 h): 0.110% | content of impurity based on HPLC spectra's % Area (15 °C, 6 hr): 0.123%
